Data taken from patent US20050095299A1, “Controlled release analgesic suspensions” (priority 2003, published 2005).

Experiment: Therapeutic duration of action of an immediate release dose (from dosing instructions in labeling)
Assay type: in vivo
Text: As used herein, “ATDAIRD” shall mean the average therapeutic duration of action of an effective immediate release dose” of a particular active ingredient. […] The therapeutic duration of action of a particular active ingredient can readily be determined from the dosing instructions in the labeling for immediate release products containing that particular active ingredient.

Row | SMILES | ATDAIRD (average therapeutic duration of action of an effective immediate release dose)
1 | CC(C)Cc1ccc(C(C)C(=O)O)cc1 (stereo not drawn) [ibuprofen, 2-(4-isobutylphenyl)-propionic acid] | 5 h
2 | COc1ccc2cc([C@H](C)C(=O)O)ccc2c1 [naproxen] | 10 h
3 | CC(C(=O)O)c1cccc(C(=O)c2ccccc2)c1 (stereo not drawn) [ketoprofen] | 5 h
